Results from paper PMC11643690, “Chelating Properties of N6O-Donors Toward Cu(II) Ions: Speciation in Aqueous Environments and Catalytic Activity of the Dinuclear Complexes” (Molecules, 2024).

Assays:
[1] = ESI-MS(+) competition with equimolar Cu, Fe, Mn, Zn perchlorates; format: binding; conditions: half an equivalent of ligand
Method: Equimolar solutions of Cu(ClO4)2, Fe(ClO4)2, Mn(ClO4)2, and Zn(ClO4)2 were prepared, and half an equivalent of HL-CH3 was added. The composition of the solution was then analyzed with ESI-MS to determine which species were formed. […] The most intense signal is the cluster at m/z = 855, referring to the species [Cu2(L-CH3)(ClO4)2]^+. Other signals are at m/z = 801 for [Cu2(L-CH3)(COO)(ClO4)]^+ and m/z = 351 for [Cu2(L-CH3)(ClO4)]^2+.

β-amyloid 1–40 peptide = target: T1, β-amyloid 1–40 peptide (Homo sapiens, UniProt P05067); assay: Thioflavin T (ThT) fluorescence aggregation assay; format: biochemical; conditions: [ThT] = 10 μM; [β-amyloid 1–40] = 10 μM; 10 μM test substance; PBS pH 7.4, 37 °C
T1 construct: β-Amyloid (1–40) was purchased from GenScript; purchased GenScript (Leiden, the Netherlands)
Method: To evaluate the anti-aggregation ability of the complexes, the β-amyloid 1–40 peptide was selected due to its higher solubility and slower aggregation rate compared to the full-length Aβ 1–42. Aggregation experiments were conducted using the Thioflavin T (ThT) fluorescence assay, which is a standard method to monitor amyloid aggregation. ThT binds specifically to amyloid fibrils, causing an increase in fluorescence intensity. If a complex inhibits peptide aggregation, the observed fluorescence increase will be lower compared to the reference, indicating inhibition.
In this experiment, the amyloid peptide was first dissolved in 1,1,1,3,3,3-hexafluoro-2-propanol (HFIP) to facilitate its unfolding. A 0.2 mM solution of the peptide was then prepared in 10 mM PBS (containing 100 mM NaCl, pH 7.4). To this solution, equimolar amounts of ThT (prepared in the same buffer) and the complex (dissolved in methanol) were added.
Aggregation test: ThT method
Amyloid peptides Aβ1-40 were used for this analysis. […]
• For the measurement, fluorescence spectra were recorded with a plate reader, using a Tecan […]
The fluorescence of sample solutions was monitored at 37° C over a period of about 30 hours, acquiring values every 20 minutes. The fluorescence variation of ThT was compared in the presence/ absence of amyloid/ ligands/ complexes.

T1 sequence (P05067 672-711 limits assumed): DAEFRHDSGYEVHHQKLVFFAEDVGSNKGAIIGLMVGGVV

Structure (SMILES): Cc1cc(CN(Cc2ccccn2)Cc2ccccn2)c(O)c(CN(Cc2ccccn2)Cc2ccccn2)c1 [HL-CH3, 2,6-bis[(bis(2-pyridylmethyl)amino)methyl]-4-methylphenol]
- species formed in ESI-MS(+) spectrum [1]: only ascribable to the copper complex
- inhibition of Aβ 1–40 aggregation (ThT fluorescence) (β-amyloid 1–40 peptide): moderate inhibition
